# Laboratory results taken from US20110065208A1, “DETERMINATION AND ESTIMATION OF ABSORPTION AND DISTRIBUTION OF SUBSTANCES IN BRAIN TISSUE” (SOVICELL GMBH, priority 2008, published 2011).
# Read-outs that look alike come from different tables or passages of the source.
# Columns and labels:
# [1] = Brain lipid-water partition coefficient log MAbrain (membrane affinity) on immobilized brain lipid membranes; assay type: physicochemical; settings: for logMA_brain: Table 6, parameter set for free fraction in brain
# Procedure: 440 mg of a brain lipid extract (Avanti Polar Lipids Inc., USA) are dissolved in 50 mL of chloroform. This solution is evaporated under reduced pressure in a glass flask in a rotating rotary evaporator, wherein a thin lipid film deposits on the wall.
# The lipid film is swollen overnight in a water vapor atmosphere; subsequently, 88 mL of a buffer (20 mM HEPES, pH 7.0, 30 mM NaCl, 2 mM CaCl2) are added, and the lipid film is vesiculated by means of a high-pressure homogenizer.
# 5 g of the carrier material provided above are added to the vesicle solution thus produced and incubated overnight. Excess lipid is removed by washing three times with buffer (20 mM HEPES, pH 7.0, 30 mM NaCl, 2 mM CaCl2). Finally, this is followed by rebuffering in PBS (phosphate-buffered saline, 10 mM sodium phosphate, 0.9% NaCl, pH 7.4) and filling up to 25 mL with buffer. The suspension obtained is then used to determine the brain lipid-water partition coefficient, as described below.
# To determine the brain lipid-water partition coefficient, a total of 5 wells of a 96-well microtiter plate are filled as follows: • Well 1: 405 μL PBS • Well 2: 375 μL PBS+30 μL suspension (see 2.) • Well 3: 357 μL PBS+48 μL suspension (see 2.) • Well 4: 338 μL PBS+77 μL suspension (see 2.) • Well 5: 405 μL PBS.
# To each of these wells, 45 μL of a 500 μM solution of trifluoperazine in PBS/10% DMSO are added, and after mixing by resuspension, the solid body is separated from the supernatant by sedimentation. The concentration of the substance in the supernatant is quantified by UV measurement, and the brain lipid-water partition coefficient log MAbrain is calculated through the following equation: […]
# In the equation are: • Vtotal Total volume per well • Vlipid Lipid volume per well • ctotal Substance concentration of wells 1 and 5 without binding partner • cwater Substance concentration in the supernatant of wells 2-4 with binding partner.
# To determine the brain lipid-water partition coefficient, two 96-well microtiter plates are filled row by row as follows: • Row 1: 405 μL PBS • Row 2: 375 μL PBS+30 μL suspension (see 2.) • Row 3: 357 μL PBS+48 μL suspension (see 2.) • Row 4: 338 μL PBS+77 μL suspension (see 2.) • Row 5: 285 μL PBS+120 μL suspension (see 2.) • Row 6: 210 μL PBS+195 μL suspension (see 2.) • Row 7: 105 μL PBS+300 μL suspension (see 2.) • Row 8: 405 μL PBS.
# A broad binding range is covered by this filling of the plates. […] After mixing by resuspension, the solid body is separated from the supernatant by sedimentation.
# The concentration of the substance in the supernatant is quantified by HPLC, and the brain lipid-water partition coefficient log MAbrain is calculated through the abovementioned equation (4), wherein, in this case, Vtotal is the total volume per well, Vlipid is the lipid volume per well, ctotal is the substance concentration of rows 1 and 8 without binding partner, and cwater is the substance concentration in the supernatant of wells 2-7 with binding partner.
# [2] = test system: T1, AGP (α1-acid glycoprotein); test: AGP binding constants (TRANSIL AGP Binding Kit)
# T1 construct: fused on or other part: immobilised on silica beads (TRANSIL solid support)
# [3] = cited from earlier work
# [4] = log K^B/F, bound to free fraction in blood plasma calculated from KD^HSA and KD^AGP; assay type: in vitro ADME; settings: Table 4; calculated with [HSA] 588.2 μM, [AGP] 24.4 μM
# Text: The log K^B/F value represents the logarithmized ratio of the bound fraction to the free fraction in blood plasma, which has been approximately calculated from the dissociation constants KD^AGP and KD^HSA according to:
# [formula] • fu Free substance concentration in plasma • [drug]total^plasma Total substance concentration in plasma • [HSA]
# [5] = molecular target: HSA (human serum albumin) (Homo sapiens, UniProt P02768); test: HSA binding constants (TRANSIL HSA Binding Kit)
# Chain of HSA (human serum albumin) (P02768 25-609): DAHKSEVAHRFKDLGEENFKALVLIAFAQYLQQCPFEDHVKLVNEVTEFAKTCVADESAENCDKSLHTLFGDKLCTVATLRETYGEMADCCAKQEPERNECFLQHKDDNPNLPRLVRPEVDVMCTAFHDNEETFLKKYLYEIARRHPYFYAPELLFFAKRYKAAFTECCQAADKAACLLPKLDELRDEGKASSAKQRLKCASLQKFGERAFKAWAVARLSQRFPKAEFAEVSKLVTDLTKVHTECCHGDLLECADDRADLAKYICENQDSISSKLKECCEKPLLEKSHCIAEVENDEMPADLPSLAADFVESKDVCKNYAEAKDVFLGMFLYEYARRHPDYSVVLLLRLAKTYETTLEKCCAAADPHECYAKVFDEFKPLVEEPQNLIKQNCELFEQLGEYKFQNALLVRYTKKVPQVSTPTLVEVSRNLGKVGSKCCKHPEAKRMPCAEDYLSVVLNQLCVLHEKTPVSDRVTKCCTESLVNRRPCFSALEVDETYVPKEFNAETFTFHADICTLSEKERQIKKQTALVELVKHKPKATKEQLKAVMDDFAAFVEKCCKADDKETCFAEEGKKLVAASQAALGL
# Text: In the equation are: • [drug]bound: Concentration of bound substance • [drug]free: Concentration of free substance in the supernatant • [protein]: Protein concentration in the respective wells.
# [6] = Table 6; free fraction in brain; cited from earlier work
# [7] = log BB estimated by QSAR equation (9); settings: Table 5; validation set, calculated by equation (9)
# Procedure: To estimate the plasma-brain partition coefficients, a multilinear regression was carried out according to the equation:
# log BB=A*log MAbrain+B*PSA+C*MW+D*log K^B/F+E. (6)
# [8] = Table 1, PBS pH 7.4, quantified by HPLC
# [9] = Table 4, repeated parameter set
# [10] = Table 4, test set for multilinear regression
# [11] = Table 5, values from the literature
SMILES,"logMAbrain [1, 8]","logMAbrain [1, 9]",Kd [2] [µM],"logBB [3, 10]",logK^B/F [4],Kd [5] [µM],fu_brain [6],further results
"CC(=O)Oc1ccccc1C(=O)O [Acetylsalicylic acid, acetylsalicylic acid]",1.40,1.40,460,−0.5,0.23,360,–,–
"CN(C)CCC=C1c2ccccc2CCc2ccccc21 [Amitryptilline, amitryptilline]",–,–,–,–,–,–,0.009,"logMA_brain [1]: 2.94; logBB [3, 11]: 0.87; logBB_calc [7]: 1.38"
"Cc1cc(=O)n(-c2ccccc2)n1C [Antipyrine, antipyrine]",1.33,1.33,–,−0.1,−0.54,2700,–,"Kd ([2]; Table 3, quantified by HPLC, read-out: KD^AGP): 380 µM"
"Cn1c(=O)c2c(ncn2C)n(C)c1=O [Caffeine, caffeine]",1.36,1.36,580,–,–,–,0.52,logMA_brain [1]: 1.36
"NC(=O)N1c2ccccc2C=Cc2ccccc21 [Carbamazepine, carbamazepine]",–,–,–,–,–,–,0.1185,"logMA_brain [1]: 1.79; logBB [3, 11]: 0; logBB_calc [7]: −0.09"
"CN(C)CCCN1c2ccccc2Sc2ccc(Cl)cc21 [Chlorpromazine, chlorpromazine]",3.70,3.70,0.72,–,–,–,0.002,logMA_brain [1]: 3.70
"CN/C(=N/CCSCc1nc[nH]c1C)NC#N [Cimetidine, cimetidine]",1.80,1.80,250,−1.42,−0.13,920,–,–
"Clc1cccc(Cl)c1N=C1NCCN1 [Clonidine, clonidine]",1.30,1.30,69,0.11,−0.17,1900,–,–
"CNCCCN1c2ccccc2CCc2ccccc21 [Desipramine, desipramine]",–,–,5.1,1.2,–,200,–,–
"CNCCC(Oc1ccc(C(F)(F)F)cc1)c1ccccc1 (stereo not shown) [Fluoxetine, fluoxetine]",–,–,–,–,–,–,0.004,logMA_brain [1]: 3.52; logBB_calc [7]: 1.29
O=C(CCCN1CCC(O)(c2ccc(Cl)cc2)CC1)c1ccc(F)cc1 [Haloperidol],–,–,–,–,–,–,0.011,logMA_brain [1]: 2.7
"CC(C)Cc1ccc(C(C)C(=O)O)cc1 (stereo not shown) [Ibuprofen, ibuprofen]",1.70,1.70,670,−0.18,3.14,–,–,–
"CN(C)CCCN1c2ccccc2CCc2ccccc21 [Imipramine, imipramine]",–,–,3.1,0.83,–,220,–,–
"COc1ccc2c(c1)c(CC(=O)O)c(C)n2C(=O)c1ccc(Cl)cc1 [Indomethacin, indomethacin]",2.30,2.30,43,−1.26,2.97,–,–,–
"CCN(CC)CC(=O)Nc1c(C)cccc1C [Lidocaine, lidocaine]",–,–,–,–,–,–,–,logBB_calc [7]: −0.08
"CN1CCN2c3ccccc3Cc3ccccc3C2C1 (stereo not shown) [Mianserin, mianserin]",–,–,–,–,–,–,–,"logBB [3, 11]: 0.99; logBB_calc [7]: 1.47"
"CCCCC1C(=O)N(c2ccccc2)N(c2ccccc2)C1=O [Phenylbutazone, phenylbutazone]",–,–,70,−0.52,–,–,–,–
O=C1NC(=O)C(c2ccccc2)(c2ccccc2)N1 [Phenytoin],–,–,–,–,–,–,0.082,–
"CCN(CC)CCOC(=O)c1ccc(N)cc1 [Procaine, procaine]",–,–,–,–,–,–,–,"logBB [3, 11]: 0.05; logBB_calc [7]: −0.41"
"CN(C)CCCN1c2ccccc2Sc2ccccc21 [Promazine, promazine]",3.20,3.20,1.6,1.23,1.33,99,–,–
"CC(C)NCC(O)COc1cccc2ccccc12 (stereo not shown) [Propranolol, propranolol]",2.70,2.70,5.4,0.64,0.74,610,–,–
"C=C[C@H]1C[N@@]2CC[C@H]1C[C@@H]2[C@@H](O)c1ccnc2ccc(OC)cc12 [Quinidine, quinidine]",2.10,2.10,13,–,–,–,–,–
"CNC(=C[N+](=O)[O-])NCCSCc1ccc(CN(C)C)o1 [Ranitidine, ranitidine]",–,–,–,–,–,–,–,"logBB [3, 11]: −1.23"
"O=C(O)c1ccccc1O [Salicylic acid, salicylic acid]",1.30,1.30,640,–,1.37,–,–,–
"Cn1c(=O)c2[nH]cnc2n(C)c1=O [Theophylline, theophylline]",–,–,810,–,–,–,–,–
CSc1ccc2c(c1)N(CCC1CCCCN1C)c1ccccc1S2 (stereo not shown) [Thioridazine],–,–,–,–,–,–,0.001,logMA_brain [1]: 3.74
"CN1CCN(CCCN2c3ccccc3Sc3ccc(C(F)(F)F)cc32)CC1 [Trifluoperazine, trifluoperazine]",4.70,4.70,0.25,1.44,2.17,12,0.0007,"logMAbrain ([1]; PBS pH 7.4, quantified by UV measurement, 5 wells): 4.7; logMA_brain [1]: 4.70"
